From ChEMBL document CHEMBL3259526, “(11)C-labeling and preliminary evaluation of vortioxetine as a PET radioligand” (Bioorg Med Chem Lett, 2014)

Columns and labels:
[1] = Drug uptake in Danish Landrace pig cerebellum at 124 MBq, iv after 90 mins by PET analysis; assay type: ADME, organism-based, Sus scrofa; details: in vivo, 1.5 h
[2] = Drug uptake in Danish Landrace pig hippocampus at 124 MBq, iv after 90 mins by PET analysis; assay type: ADME, organism-based, Sus scrofa; details: in vivo, 1.5 h
[3] = Drug uptake in Danish Landrace pig thalamus at 124 MBq, iv after 90 mins by PET analysis; assay type: ADME, organism-based, Sus scrofa; details: in vivo, 1.5 h
[4] = Drug uptake in Danish Landrace pig striatum at 124 MBq, iv after 90 mins by PET analysis; assay type: ADME, organism-based, Sus scrofa; details: in vivo, 1.5 h
[5] = Drug uptake in Danish Landrace pig cortex at 124 MBq, iv after 90 mins by PET analysis; assay type: ADME, organism-based, Sus scrofa; details: in vivo, 1.5 h
[6] = Drug uptake in Danish Landrace pig brain at 124 MBq, iv after 60 mins by PET analysis; assay type: ADME, organism-based, Sus scrofa; details: in vivo, 1 h
[7] = Plasma protein binding in pig plasma at 5 MBq after 2.5 hrs by equilibrium dialysis chamber method; assay type: ADME, cell-free, Sus scrofa; details: read-out: PPB (converted)

Cc1ccc(Sc2ccccc2N2CCNCC2)c([11CH3])c1
Drug uptake [1]: Active
Drug uptake [2]: Active
Drug uptake [3]: Active
Drug uptake [4]: Active
Drug uptake [5]: Active
Drug uptake [6]: Active
fraction unbound at 2.5 h, 5 MBq [7]: 0.02
